Assay results taken from patent US20030187056A1, “Live cell procedures to identify to identify compounds modulating intracellular distribution of phosphodiesterase( pde) enzymes” (priority 2000, published 2003).

What was measured:
HSPDE4A4-H506N-EGFP = target: T1, HSPDE4A4-H506N-EGFP (Homo sapiens, UniProt P27815, H506N); experiment: Spot formation in CHO cells transfected with HSPDE4A4-H506N-EGFP; format: cell-based; conditions: clonal CHO, 23.5 hours
T1 construct: expressed in transfected cells
T1 sequence (P27815 whole entry H506N): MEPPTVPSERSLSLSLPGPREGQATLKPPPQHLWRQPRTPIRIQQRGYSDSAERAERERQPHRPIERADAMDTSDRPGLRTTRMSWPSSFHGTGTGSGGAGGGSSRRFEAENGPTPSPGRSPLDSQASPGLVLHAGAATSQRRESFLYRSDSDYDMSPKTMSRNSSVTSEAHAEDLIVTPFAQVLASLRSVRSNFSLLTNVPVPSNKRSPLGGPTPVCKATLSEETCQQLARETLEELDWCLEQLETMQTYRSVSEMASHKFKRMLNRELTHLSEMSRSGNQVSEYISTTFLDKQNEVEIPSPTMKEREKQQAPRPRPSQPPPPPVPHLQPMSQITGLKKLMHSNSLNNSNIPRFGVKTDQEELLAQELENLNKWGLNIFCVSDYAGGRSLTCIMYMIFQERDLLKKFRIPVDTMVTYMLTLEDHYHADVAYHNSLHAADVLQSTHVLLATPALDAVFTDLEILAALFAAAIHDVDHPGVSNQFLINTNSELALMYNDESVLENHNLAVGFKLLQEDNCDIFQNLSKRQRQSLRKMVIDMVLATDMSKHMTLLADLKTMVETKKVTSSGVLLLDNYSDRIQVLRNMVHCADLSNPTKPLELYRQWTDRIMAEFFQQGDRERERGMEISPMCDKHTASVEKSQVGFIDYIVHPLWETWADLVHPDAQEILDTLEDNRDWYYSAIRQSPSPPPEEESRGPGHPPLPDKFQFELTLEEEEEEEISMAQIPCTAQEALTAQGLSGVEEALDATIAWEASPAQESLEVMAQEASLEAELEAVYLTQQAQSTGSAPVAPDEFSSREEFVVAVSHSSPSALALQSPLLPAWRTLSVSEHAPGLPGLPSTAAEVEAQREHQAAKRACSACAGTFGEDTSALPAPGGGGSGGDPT
Description: (§1) The cells are then fixed with 4% formaldehyde buffer (pH7) for 1 hour, washed with PBS and stained with 1 μM Hoechst 33258 in PBS for 10 minutes at 25° C., then washed twice in PBS. Automated images are collected and analysed for the number of spots per cell as described in Example 2.
as §1, with “Cells are grown in HAM's F12 medium plus 10% FBS plus various concentrations of inhibitors for 23.5 hours. The” for “The”

PDE3 = PDE3 inhibition (literature values, PDE3/PDE4 specificity); format: biochemical; conditions: measure of specificity
Description: These compounds are termed specific to PDE4, since they inhibit other PDEs either weakly or not at all. The inverse ratio between IC50 of a compound to PDE4s versus its inhibition of other cAMP-degrading PDEs, such as PDE3s is often used as a measure of specificity.

HSPDE4A1-EGFP = target: T2, HSPDE4A1-EGFP (Homo sapiens, UniProt P27815); experiment: Competitive assay: reversal of Rolipram-induced spot dispersal, HSPDE4A1-EGFP CHO cells; format: cell-based; conditions: yes/no
T2 construct: the ca. 1.95 kb coding region of HSPDE4A1 (GenBank Acc.no. U97584) is amplified; expressed in transfected cells
T2 sequence (P27815 1-647 isoform P27815-4): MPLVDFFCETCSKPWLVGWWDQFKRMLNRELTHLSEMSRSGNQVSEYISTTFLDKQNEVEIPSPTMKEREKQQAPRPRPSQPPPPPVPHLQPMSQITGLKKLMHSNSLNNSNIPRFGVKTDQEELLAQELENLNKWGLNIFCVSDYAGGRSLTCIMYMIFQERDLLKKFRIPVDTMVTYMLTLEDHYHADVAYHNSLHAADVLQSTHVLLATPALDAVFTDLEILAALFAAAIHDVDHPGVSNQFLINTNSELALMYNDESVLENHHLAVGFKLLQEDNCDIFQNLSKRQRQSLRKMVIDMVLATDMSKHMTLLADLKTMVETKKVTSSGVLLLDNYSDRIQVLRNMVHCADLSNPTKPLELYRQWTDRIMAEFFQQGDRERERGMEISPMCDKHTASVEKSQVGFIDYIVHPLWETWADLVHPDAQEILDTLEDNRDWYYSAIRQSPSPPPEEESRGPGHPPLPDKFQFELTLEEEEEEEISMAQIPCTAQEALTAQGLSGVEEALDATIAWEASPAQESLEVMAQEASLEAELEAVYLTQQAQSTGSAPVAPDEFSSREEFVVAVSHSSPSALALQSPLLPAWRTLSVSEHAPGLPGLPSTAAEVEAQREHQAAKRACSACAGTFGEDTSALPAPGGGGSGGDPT

[1] = human, in vivo; cited from earlier work
HSPDE4A4-EGFP = target: T3, HSPDE4A4-EGFP (Homo sapiens, UniProt P27815); experiment: Spot formation in CHO cells transfected with HSPDE4A4-EGFP; format: cell-based; conditions: for cells with spots: clonal
T3 construct: expressed in transfected cells
T3 sequence (P27815 whole entry): as the sequence (P27815 whole entry H506N) above, with N506H counted along it

Question: For `O=c1c2cccnc2n(-c2cccc([N+](=O)[O-])c2)c(=O)n1Cc1ccncc1` [RS25344], which EC50 (HSPDE4A4-H506N-EGFP) is on record?
Answer: 0.125 µM

Question: What about the “(IC50 PDE3)/(IC50 PDE4)” value (PDE3) of the same molecule?
Answer: 1,170,000

Question: And the “Reversal of Rolipram-induced removal of PDE4A1 spots” value (HSPDE4A1-EGFP)?
Answer: no

Question: And the Clinical effect [1]?
Answer: anti-

Question: What about the Emesis [1] of the same molecule?
Answer: yes

Question: What about the cells with spots (HSPDE4A4-EGFP; 0.03 μM RS25344, 24.5 hours) of the same molecule?
Answer: about 40%

Question: And the cells with spots (HSPDE4A4-EGFP; 0.03 μM RS25344, 24.5 hours, listed as RS 25344)?
Answer: approximately 40%

Question: And the cells with spots (HSPDE4A4-EGFP; 1 μM RS25344, 24.5 hours)?
Answer: more than 95%

Question: What about the EC50 (HSPDE4A4-EGFP; clonal CHO, 23.5 hours, 4-parameter Hill fit, read-out: EC50 spot formation (spots per cell)) of the same molecule?
Answer: 0.017 µM

Question: What about the “Formation of PDE4A4 spots” value (HSPDE4A4-EGFP; yes/no) of the same molecule?
Answer: yes
